This passage reports IC50 results from BindingDB's records for patent US20240352053 (Betta Pharmaceuticals, 2024).

What all share (assay): Kinase Inhibition Assay
Experiment [1] deals with Epidermal growth factor receptor (Homo sapiens, UniProt P00533). Here is the method:
(§1) Mobility shift assays were performed to determine the compound's inhibitory activity against EGFR delta19del/T790M/C797S, EGFR WT, and IGF1R kinases. The enzyme reaction scheme is as follows: 1. Prepare 1*kinase buffer as follows. Final 1* Kinase buffer concentration HEPES PH 7.5 (mM) 50 Brij-35 0.0150% DTT (mM) 2 Mgcl2, Mncl2 (mM) 10 2. Preparation of compound concentration gradient: The starting concentration of the test compound is 3000 nM or 100 nM, dilute it in the 384-source plate to a 100% DMSO solution of 100 times the final concentration, and use precision to dilute the compound 3 times to 10 concentrations. Use the Dispenser Echo 550 to transfer 250 nL of 100x the final concentration of compound to the destination plate OptiPlate-384F. 3. Prepare a kinase solution with 2.5 times the final concentration using 1x Kinase buffer. 4. Add 10 uL of 2.5 times the final concentration of kinase solution to the compound wells and positive control wells respectively; add 10 uL of 1x Kinase buffer to the negative control wells. 5. Centrifuge at 1000 rpm for 30 seconds, shake and mix the reaction plate and incubate at room temperature for 10 minutes. 6. Use 1x Kinase buffer to prepare a mixed solution of ATP and Kinase substrate at 5/3 times the final concentration. 7. Add 15 uL of a mixed solution of ATP and substrate at 5/3 times the final concentration to start the reaction. 8. Centrifuge the 384-well plate at 1000 rpm for 30 seconds, mix well by shaking, and incubate at room temperature for the corresponding time. 9. Add 30 uL of stop detection solution to stop the kinase reaction, centrifuge at 1000 rpm for 30 seconds, and shake to mix. 10. Use Caliper EZ Reader to read conversion rates. 11. Calculation formula

Experiment [2] has as its target T1, Epidermal growth factor receptor [1-18,20-1210,T790M,C797S] (Human, UniProt P00533, T790M/C797S).
T1 construct: 1-18,20-1210
The method, then: as §1

Experiment [3] deals with Insulin-like growth factor 1 receptor (Homo sapiens, UniProt P08069). Here is the method:
as §1

Insulin-like growth factor 1 receptor, sequence (P08069 31-736 limits assumed): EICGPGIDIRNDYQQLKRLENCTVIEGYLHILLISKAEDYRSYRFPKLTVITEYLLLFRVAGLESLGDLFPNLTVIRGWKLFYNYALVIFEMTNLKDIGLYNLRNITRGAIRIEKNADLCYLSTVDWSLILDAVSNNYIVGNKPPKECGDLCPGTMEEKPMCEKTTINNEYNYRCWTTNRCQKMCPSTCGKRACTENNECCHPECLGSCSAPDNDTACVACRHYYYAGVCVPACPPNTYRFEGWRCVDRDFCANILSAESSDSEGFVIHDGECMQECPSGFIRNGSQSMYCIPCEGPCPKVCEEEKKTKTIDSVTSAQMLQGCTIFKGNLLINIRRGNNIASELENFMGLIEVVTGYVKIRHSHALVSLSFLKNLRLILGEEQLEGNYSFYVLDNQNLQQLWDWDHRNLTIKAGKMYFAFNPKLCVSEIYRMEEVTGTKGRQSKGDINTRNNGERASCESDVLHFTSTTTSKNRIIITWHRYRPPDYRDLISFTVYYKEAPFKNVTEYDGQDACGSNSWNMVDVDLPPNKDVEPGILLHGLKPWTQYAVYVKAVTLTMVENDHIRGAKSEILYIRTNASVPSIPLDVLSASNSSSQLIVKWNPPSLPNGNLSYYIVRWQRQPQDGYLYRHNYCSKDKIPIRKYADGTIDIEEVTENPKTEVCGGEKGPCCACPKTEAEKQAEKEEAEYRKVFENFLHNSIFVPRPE
Insulin-like growth factor 1 receptor, sequence (P08069 741-1367 limits assumed): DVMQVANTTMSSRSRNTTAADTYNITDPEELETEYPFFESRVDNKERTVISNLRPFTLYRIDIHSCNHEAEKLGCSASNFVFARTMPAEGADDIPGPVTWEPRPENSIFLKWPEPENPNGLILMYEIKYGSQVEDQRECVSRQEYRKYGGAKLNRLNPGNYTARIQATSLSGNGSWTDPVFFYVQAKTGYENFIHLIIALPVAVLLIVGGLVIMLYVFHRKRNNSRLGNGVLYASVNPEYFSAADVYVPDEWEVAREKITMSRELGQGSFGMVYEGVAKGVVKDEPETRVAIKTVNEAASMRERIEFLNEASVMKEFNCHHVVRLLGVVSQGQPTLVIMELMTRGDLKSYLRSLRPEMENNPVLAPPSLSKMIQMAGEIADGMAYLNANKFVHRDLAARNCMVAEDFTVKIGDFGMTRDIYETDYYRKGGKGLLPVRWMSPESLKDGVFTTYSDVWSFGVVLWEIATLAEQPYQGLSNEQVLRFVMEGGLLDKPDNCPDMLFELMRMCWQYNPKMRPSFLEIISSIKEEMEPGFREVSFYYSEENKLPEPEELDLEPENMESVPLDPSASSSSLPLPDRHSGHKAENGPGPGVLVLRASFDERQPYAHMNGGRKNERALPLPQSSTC
Epidermal growth factor receptor, sequence (P00533 whole entry): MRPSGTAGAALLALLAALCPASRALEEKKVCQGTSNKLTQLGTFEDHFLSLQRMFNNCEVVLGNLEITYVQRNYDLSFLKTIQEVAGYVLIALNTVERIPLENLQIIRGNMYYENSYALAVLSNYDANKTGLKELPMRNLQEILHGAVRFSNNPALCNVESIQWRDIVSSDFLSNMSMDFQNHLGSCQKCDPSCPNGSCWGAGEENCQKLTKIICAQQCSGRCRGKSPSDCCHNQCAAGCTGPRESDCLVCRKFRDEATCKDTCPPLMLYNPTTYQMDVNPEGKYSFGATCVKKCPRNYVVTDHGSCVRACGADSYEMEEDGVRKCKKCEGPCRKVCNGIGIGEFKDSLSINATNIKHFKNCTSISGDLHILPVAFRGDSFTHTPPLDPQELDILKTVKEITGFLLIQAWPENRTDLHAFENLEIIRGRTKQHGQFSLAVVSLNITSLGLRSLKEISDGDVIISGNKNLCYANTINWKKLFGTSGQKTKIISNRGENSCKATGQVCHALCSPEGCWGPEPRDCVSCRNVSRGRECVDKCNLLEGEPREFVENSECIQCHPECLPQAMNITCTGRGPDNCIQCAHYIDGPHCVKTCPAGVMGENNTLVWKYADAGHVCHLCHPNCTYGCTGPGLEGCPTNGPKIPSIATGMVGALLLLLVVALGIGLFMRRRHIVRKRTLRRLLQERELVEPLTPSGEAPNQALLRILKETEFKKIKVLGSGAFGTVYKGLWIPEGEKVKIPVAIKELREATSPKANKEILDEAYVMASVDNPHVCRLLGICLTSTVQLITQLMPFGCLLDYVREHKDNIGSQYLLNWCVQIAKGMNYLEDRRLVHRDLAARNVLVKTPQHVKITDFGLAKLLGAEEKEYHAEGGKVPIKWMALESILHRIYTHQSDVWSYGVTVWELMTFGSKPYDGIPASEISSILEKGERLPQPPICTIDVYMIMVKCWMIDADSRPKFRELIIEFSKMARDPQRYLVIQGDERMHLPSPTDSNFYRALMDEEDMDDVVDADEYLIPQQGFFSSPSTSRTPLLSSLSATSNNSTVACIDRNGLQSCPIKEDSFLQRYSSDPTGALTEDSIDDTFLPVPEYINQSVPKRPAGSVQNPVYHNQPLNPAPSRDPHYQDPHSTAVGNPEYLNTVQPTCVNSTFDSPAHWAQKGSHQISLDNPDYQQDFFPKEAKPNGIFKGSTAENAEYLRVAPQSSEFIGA

For `CCc1cc(Nc2ncc(Br)c(Nc3ccc4ncccc4c3P(C)(C)=O)n2)c(OC)cc1N1CCC(N2CCN(C)CC2)CC1` [US20240352053, Compound Control Example 1], the IC50 – broadly, the concentration needed to halve the response being measured – in experiment [1] was 5.1 nM; in experiment [2] it was 0.2 nM; in experiment [3] it was 9.5 nM.
In experiment [2], `COc1cc(N2CCC(N3CCN(C)CC3)CC2)c(C)cc1Nc1ncc(Br)c(Nc2ccc3nc(C4CC4)ccc3c2P(C)(C)=O)n1` [US20240352053, Compound Formula I] yielded an IC50 of 0.3 nM.
